Data reported in ChEMBL document CHEMBL1127777, “Indolocarbazole nitrogens linked by three-atom bridges: a potent new class of PKC inhibitors” (Bioorg Med Chem Lett, 1994).

Molecular target: Protein kinase C (PKC)
Assay: In vitro inhibition of protein kinase C from rat brain.

Row | Compound | IC50
1 | O=C1NC(=O)c2c1c1c3ccccc3n3c1c1c2c2ccccc2n1CN(CCO)C3 | 17 nM
2 | O=C1NCc2c1c1c3ccccc3n3c1c1c2c2ccccc2n1CN(CCO)C3 | 15 nM
3 | O=C1NCc2c1c1c3ccccc3n3c1c1c2c2ccccc2n1CSC3 | 7 nM
4 | O=C1NC(=O)c2c1c1c3ccccc3n3c1c1c2c2ccccc2n1CNC3 | 145 nM
5 | O=C1NC(=O)c2c1c1c3ccccc3n3c1c1c2c2ccccc2n1CN(O)C3 | 90 nM
6 | O=C1NC(=O)c2c1c1c3ccccc3n3c1c1c2c2ccccc2n1C[S+]([O-])C3 | 19 nM
7 | O=C1NCc2c1c1c3ccccc3n3c1c1c2c2ccccc2n1CS(=O)(=O)C3 | 5 nM
8 | CN1Cn2c3ccccc3c3c4c(c5c6ccccc6n(c5c32)C1)C(=O)NC4=O | 86 nM
9 | CCOC(=O)C1n2c3ccccc3c3c4c(c5c6ccccc6n(c5c32)CS1(=O)=O)C(=O)NC4=O (stereo not drawn) | 20 nM
10 | NC1=NC(=O)c2c1c1c3ccccc3n3c1c1c2c2ccccc2n1CSC3 | 24 nM
11 | O=C1NC(=O)c2c1c1c3ccccc3n3c1c1c2c2ccccc2n1CS(=O)(=O)C3 | 2 nM
12 | O=C1NC(=O)c2c1c1c3ccccc3n3c1c1c2c2ccccc2n1C1COCC3S1(=O)=O | 20 nM
13 | O=C1NC(=O)c2c1c1c3ccccc3n3c1c1c2c2ccccc2n1CSC3 | 14 nM
14 | NC1=NC(=O)c2c1c1c3ccccc3n3c1c1c2c2ccccc2n1COC3 | 24 nM
15 | O=C1NC(=O)c2c1c1c3ccccc3n3c1c1c2c2ccccc2n1COC3 | 11 nM
16 | O=C1NC(=O)c2c1c1c3ccccc3n3c1c1c2c2ccccc2n1CN(C(CO)CO)C3 | 10 nM
17 | CC1n2c3ccccc3c3c4c(c5c6ccccc6n(c5c32)C(C)S1(=O)=O)C(=O)NC4=O (stereo in doubt) | 2.4 nM
18 | CC1n2c3ccccc3c3c4c(c5c6ccccc6n(c5c32)C(C)S1(=O)=O)C(=O)NC4=O (stereo in doubt; 16 (dl)) | 120 nM
